Patent US8642764B1, “Julolidine conjugates and methods for their preparation and use” (Jawaharlal Nehru Centre for Advanced Scientific Research, priority 2012, dated 2014)

Assays:
[1] = Specificity of Schiff-base compounds towards Cu^2+ ions (absorption spectra); type: physicochemical; details: for absorption band: absence of Cu^2+ ions; for characteristic absorbance in the NIR region / characteristic absorbance in the visible region: presence of Cu^2+ ions
Experimental: The specificity of bi-julolidine Schiff-base compounds, compound 1 and compound 2, in detecting Cu^2+ ions were investigated by monitoring the absorption spectral behavior of the compounds. The experiment was also performed using other Schiff-base compounds that were prepared by condensing different salicylaldehyde derivatives with carbohydrazide and thiocarbohydrazide (compounds 3-8, shown below).

[2] = UV/Vis absorption and colorimetric titration with increasing concentrations of Cu^2+; type: physicochemical; details: for extinction coefficient (ε) in the NIR region at maximum: at the Cu^2+ equivalents giving maximum NIR absorbance; for extinction coefficient (ε) at 570 nm at maximum: at the Cu^2+ equivalents giving maximum absorbance at 570 nm; for NIR λmax at maximum absorbance / final solution color: end of the Cu^2+ titration; for visual color change of solution: increasing concentration of Cu^2+ ions; for NIR band λmax / new absorption band in the visible region (λmax): on first appearance in the Cu^2+ titration (1.0 to 2.0 equivalents); for Cu^2+ added at which absorbance at 570 nm reached a maximum / Cu^2+ added at which absorbance in the NIR region reached a maximum: sequential titration, pH 7.2
Experimental: The spectral and colorimetric properties of bi-julolidine compounds were investigated by monitoring the absorption spectral behavior upon addition of increasing concentrations of Cu^2+ in an aqueous buffer medium (50 mM, 2-(4-(2-hydroxyethyl)-1-piperazin-yl)ethanesulfonic acid (HEPES)/CH3CN, 6:4, v/v; pH 7.2). During sequential titration, the absorption spectra of julolidine-carbonohydrazone compound in the visible region gradually shifted from 380 nm to 412 nm with the addition of 1.5 equivalents of Cu^2+ and the colorless solution turned to light green. Increasing the concentration of Cu^2+ in the solution of julolidine-carbonohydrazone compound from 1.5 to 2.0 equivalents led to a change in the solution color from light green to light purple. A new absorption band (λmax=570 nm) appeared in the visible region accompanied by a distinguishable NIR band with λmax centered at 930 nm. The absorbance at 570 nm reached a maximum upon addition of 6.0 equivalents of Cu^2+ with an extinction coefficient (ε) of 2×10^4 M^−1cm^−1 and then decreased with further addition of Cu^2+. The absorbance in the NIR region reached a maximum (ε=5.2×10^4 M^−1cm^−1) upon addition of a total of 8.0 equivalents of Cu^2+ with a gradual shift of λmax from 930 nm to 825 nm, and that remained unchanged upon further addition of Cu^2+. The final solution color of julolidine-carbonohydrazone compound was aqua colored.
During sequential titration of Cu^2+ with julolidine-thiocarbonohydrazone compound, two absorption bands appeared at 570 nm and 980 nm, after addition of 1.0 equivalent of Cu^2+. At that concentration of Cu^2+ ions, the color of the solution of julolidine-thiocarbonohydrazone compound changed from greenish to light purple. The absorbance at 570 nm and 980 nm were enhanced when Cu^2+ concentrations increased from 1.5 to 2.0 equivalents and the purple-colored solution turned to light violet. The absorbance at 570 nm reached a maximum at 5.0 equivalents of Cu^2+ with an extinction coefficient (ε) of 2×10^4 M^−1 cm^−1 and a consequent increase in the intensity of the NIR absorption band was observed. At that concentration of Cu^2+ ions, The solution color of julolidine-thiocarbonohydrazone compound changed from light violet to blue. […] The final solution color of julolidine-thiocarbonohydrazone compound was greenish aqua.

[3] = UV/Vis absorption spectra upon addition of metal ions; type: physicochemical; details: Cu^2+ 50.0 equiv; HEPES/CH3CN pH 7.2
Experimental: The photophysical properties of bi-julolidine compounds were investigated by monitoring the absorption spectral behavior upon addition of several metal ions such as Li^+, Na^+, Ba^2+, Sr^2+, Mg^2+, Al^3+, Ca^2+, Mn^2+, Fe^2+, Co^2+, Ni^2+, Zn^2+, Ag^+, Cd^2+, Hg^2+, Pb^2+ and Cu^2+ in an aqueous buffer medium (50 mM, 2-(4-(2-hydroxyethyl)-1-piperazin-yl)ethanesulfonic acid (HEPES)/CH3CN, 6:4, v/v; pH 7.2). […] With the addition of 50.0 equivalents of Co^2+, Ni^2+and Zn^2+, the absorbance intensity decreased and slightly red shifted to different extents (Ni^2+=408.5 nm; Zn^2+=410 nm; Co^2+=409 nm).
Representative examples are shown in FIG. 1 and FIG. 2 using compound 1 and 2, respectively.

[4] = Fluorometric detection of copper ions; type: physicochemical; details: for fluorescence emission: excitation at 430 nm, no metal ion
Experimental: The fluorometric behavior of julolidine-thiocarbonohydrazone compound was studied upon addition of 20.0 equivalents of Li^+, Na^+, Ba^2+, Sr^2+, Mg^2+, […], Ca^2+, Mn^2+, Fe^2+, CO^2+, Ni^2+, Zn^2+, Ag^+, Cd^2+, Hg^2+, Pb^2+ and Cu^2+ in an aqueous buffer medium (50 mM, 2-(4-(2-hydroxyethyl)-1-piperazin-yl)ethanesulfonic acid (HEPES)/CH3CN, 6:4, v/v; pH 7.2). […] The quenched fluorescence of julolidine-thiocarbonohydrazone compound was restored upon treating the julolidine-thiocarbonohydrazone compound —Cu^2+ complex with ethylenediaminetetraacetic acid (EDTA). Fluorescence emission of compound 2 with sequential addition of increasing concentrations (0 to 50 μM) of Cu^2+ is shown in FIG. 5B.

HEK 293T cells = test: Detection of Cu^2+ ions in cells using fluorescence microscopy; type: cell-based
Experimental: HEK 293T cells were grown to 50% confluency in a 30 mm dish containing Dulbecco's modified eagle medium (DMEM) and 10% fetal bovine serum (FBS) at 37° C. and 5% CO2. The cells were washed three times with phosphate-buffered saline (PBS) and stained with julolidine-thiocarbonohydrazone compound (10 μM final concentration) in the growth media without FBS for 10 minutes. The adherent cells were washed three times with PBS to remove excess compound. […] Further, the excess of Cu—(ClO4)2.6H2O was washed off with PBS and then supplemented with EDTA (10 μM) in DMEM without FBS for 10 minutes.

Compound | absorption band [1] | characteristic absorbance in the NIR region [1] | characteristic absorbance in the visible region [1] | extinction coefficient (ε) in the NIR region at maximum [2] | extinction coefficient (ε) at 570 nm at maximum [2] | NIR λmax at maximum absorbance [2] | final solution color [2] | visual color change of solution [2] | NIR band λmax [2] | new absorption band in the visible region (λmax) [2] | Cu^2+ added at which absorbance at 570 nm reached a maximum [2] | Cu^2+ added at which absorbance in the NIR region reached a maximum [2] | characteristic absorbance in the NIR region [3] | characteristic absorbance in the visible region [3] | further results
O=C(N/N=C/c1cc2c3c(c1O)CCCN3CCC2)N/N=C/c1cc2c3c(c1O)CCCN3CCC2 [compound 1, julolidine-carbonohydrazone] | around 380 nm | 825 nm | 495 nm | 52000 M⁻¹ cm⁻¹ | 20000 M⁻¹ cm⁻¹ | 825 nm | aqua colored | light green, then to light purple, and then to aqua color | 930 nm | 570 nm | 6.0 equivalents | 8.0 equivalents | 823 nm | 495 nm | absorption in the visible region, shifted from 380 nm ([2]; addition of 1.5 equivalents of Cu^2+): 412 nm
Oc1c(/C=N/NC(=S)N/N=C/c2cc3c4c(c2O)CCCN4CCC3)cc2c3c1CCCN3CCC2 [compound 2, julolidine-thiocarbonohydrazone] | around 380 nm | 825 nm | 570 nm | 52000 M⁻¹ cm⁻¹ | 20000 M⁻¹ cm⁻¹ | 820 nm | greenish aqua | from light green to light violet, then to light blue and then to greenish aqua | 980 nm | 570 nm | 5.0 equivalents | 15.0 equivalents | around 820 nm | 570 nm | fluorescence emission in the presence of other metal ions ([4]; 20.0 equivalents of Li+, Na+, Ba2+, Sr2+, Mg2+, Ca2+, Mn2+, Fe2+, Co2+, Ni2+, Zn2+, Ag+, Cd2+, Hg2+, Pb2+): no significant changes; fluorescence intensity around 535 nm in the presence of Cu^2+ ([4]; 430 nm excitation, 20.0 equivalents of Cu^2+): quenched; quenched fluorescence after treating the Cu^2+ complex with EDTA ([4]; EDTA): restored; fluorescence emission [4]: about 535 nm; fluorescence emission ([4]; listed as Julolidine-thiocarbonohydrazone compound): around 535 nm; fluorescence in cells after staining (HEK 293T cells; 10 μM, 10 minutes, HEK 293T): presence of fluorescent julolidine-thiocarbonohydrazone compound in cells; intracellular fluorescence after Cu^2+ supplementation (HEK 293T cells; Cu(ClO4)2.6H2O 10 μM, 10 minutes): complete suppression of intracellular fluorescence; intracellular fluorescence after EDTA (HEK 293T cells; EDTA 10 μM, 10 minutes, after Cu^2+ was washed off): recovery of intracellular fluorescence; cell permeability (HEK 293T cells; HEK 293T living cells): cell-permeable
